The source made the active and inactive calls.
Tests used:
[1] = CellTiter-Glo luminescence survival assay, SW480 colon tumor line, concentration-response curve, half-maximal inhibitory concentration (AID 1117338); format: functional
[2] = HCT116 cell viability decrease, GSK3B pretreatment – CellTiter-Glo, IC50, dose response (AID 1117339); format: functional; conditions: HCT-116
[3] = Reduced DLD-1 viability, concentration-response, CellTiter-Glo luminescence (AID 1117352); format: functional
[4] = cytotoxicity toward Colo320 cells – cell-based, CellTiter-Glo luminescence, IC50, dose response (AID 1117334); format: functional; conditions: COLO 320
[5] = RKO cell viability reduction, dose response, CellTiter-Glo luminescence (AID 1117322); format: functional
[6] = cytotoxicity toward HT-29 cells – cell-based, CellTiter-Glo luminescence, IC50, dose response (AID 1117330); format: functional
[7] = SNU-C1 cell viability reduction, dose response, CellTiter-Glo luminescence (AID 1117323); format: functional, cell-based
[8] = cytotoxicity toward HCT116 cells – cell-based, CellTiter-Glo luminescence, IC50, dose response (AID 1117332); format: functional; conditions: HCT-116
[9] = mitochondrial function rescue without frataxin homolog – Friedreich's ataxia, plus single-dose screen, dose response (AID 1465); format: functional;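 note: yeast depleted of Yfh1p frataxin homolog grown on glycerol needing respiration; WST-1 tetrazolium dye reduction as measure of cellular dehydrogenase metabolic activity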
[10] = Luminescence Cell-Based Dose Response HTS to Identify Activators of Luciferase Translation or Activity in H4 […] Cells. [Related pubchem assays: 1829 (Project Summary), 1814 (Primary HTS)]; format: functional
[11] = Luminescence Cell-Based Dose Confirmation to Identify Activators of 5'UTR Stem-Loop Driven Alpha-Synuclein mRNA Translation in H4 Neuroglioblastoma Cells. [Related pubchem assays: 1829 (Project Summary), 1814 (Primary HTS)]; format: functional
[12] = Luminescence Cell-Based Dose Response to Identify Activators of 5'UTR Stem-Loop Driven Prion Protein mRNA Translation in H4-C Neuroglioblastoma Cells. [Related pubchem assays: 1829 (Project Summary), 1814 (Primary HTS)]; format: functional
[13] = Luminescence Cell-Based Dose Response to Identify Activators of Luciferase Translation or Activity in H4-C Neuroglioblastoma Cells. [Related pubchem assays: 1829 (Project Summary), 1814 (Primary HTS)]; format: functional
[14] = molecular target: NAD-dependent protein deacylase sirtuin-5, mitochondrial (Homo sapiens, UniProt Q9NXA8); experiment: sirtuin-5 deacylation blockers, concentration series – biochemical, fluorescence imaging, cherry-pick, set 5, dose response (AID 720591);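 note: desuccinylation of succinyl peptide AMC substrate read as fluorescence after trypsin release; potency of inhibitors that lower fluorescence and may act on trypsin instead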
[15] = molecular target: G-protein coupled receptor 183 (Homo sapiens, UniProt P32249); experiment: SAR confirmation of small molecule antagonists of the EBI2 receptor via a luminescent beta-arrestin assa.; format: functional
[16] = molecular target: T1, Oxysterols receptor LXR-beta (Homo sapiens, UniProt P55055); format: functional, cell-based;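 note: Cell-based luminescence dose-response assay of agonist activity at LXR, run as a confirmatory counterscreen to a daf-12 agonist screen; HEK293 cells with Gal4-LXR fusion and GAL4-driven luciferase reporter; agonist potency from rising luciferase signal of a Gal4-LXR reporter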
T1 sequence (P55055 whole entry): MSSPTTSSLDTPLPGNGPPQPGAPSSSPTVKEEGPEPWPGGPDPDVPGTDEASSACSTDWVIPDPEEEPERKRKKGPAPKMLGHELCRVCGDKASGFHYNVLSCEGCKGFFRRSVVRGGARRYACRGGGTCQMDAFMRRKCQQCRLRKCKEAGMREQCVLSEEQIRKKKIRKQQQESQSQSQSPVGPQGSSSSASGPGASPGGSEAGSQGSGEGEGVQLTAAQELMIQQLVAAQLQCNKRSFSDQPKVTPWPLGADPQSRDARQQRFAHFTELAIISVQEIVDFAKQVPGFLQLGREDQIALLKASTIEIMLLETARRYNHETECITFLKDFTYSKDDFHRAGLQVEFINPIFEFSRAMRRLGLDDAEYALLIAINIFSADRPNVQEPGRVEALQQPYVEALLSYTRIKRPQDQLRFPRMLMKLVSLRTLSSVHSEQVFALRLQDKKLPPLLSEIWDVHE

Caspase-3 = molecular target: T2, Caspase-3 (Homo sapiens, UniProt P42574); format: functional;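 note: Dose-response selectivity test against caspase-3 for candidate inhibitors of sentrin-specific proteases (SENPs)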
T2 sequence (P42574 whole entry): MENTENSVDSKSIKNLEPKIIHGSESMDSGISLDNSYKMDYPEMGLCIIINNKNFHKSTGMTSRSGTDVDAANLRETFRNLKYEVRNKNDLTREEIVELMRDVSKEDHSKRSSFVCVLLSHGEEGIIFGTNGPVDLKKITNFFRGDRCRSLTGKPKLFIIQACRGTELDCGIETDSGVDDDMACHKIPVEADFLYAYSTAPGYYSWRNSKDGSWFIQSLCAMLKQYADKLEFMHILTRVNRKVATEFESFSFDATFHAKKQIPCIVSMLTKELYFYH

[17] = molecular target: T3, Sentrin-specific protease 8 (Homo sapiens, UniProt Q96LD8); format: functional;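 note: luminescence read-out of SENP8 inhibition, dose-response confirmation following an ultra-high-throughput screen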
T3 sequence (Q96LD8 whole entry): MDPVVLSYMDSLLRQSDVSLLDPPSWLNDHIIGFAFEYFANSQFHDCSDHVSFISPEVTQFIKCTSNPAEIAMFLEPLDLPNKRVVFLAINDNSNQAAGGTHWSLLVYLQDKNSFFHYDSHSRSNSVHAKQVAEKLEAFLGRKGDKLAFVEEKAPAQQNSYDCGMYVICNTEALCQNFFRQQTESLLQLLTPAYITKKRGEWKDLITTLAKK

[18] = molecular target: T4, Sentrin-specific protease 6 (Homo sapiens, UniProt Q9GZR1); format: functional;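 note: Luminescence-based dose-response confirmatory assay of SENP6 inhibition, following up an ultra-high-throughput screen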
T4 sequence (Q9GZR1 whole entry): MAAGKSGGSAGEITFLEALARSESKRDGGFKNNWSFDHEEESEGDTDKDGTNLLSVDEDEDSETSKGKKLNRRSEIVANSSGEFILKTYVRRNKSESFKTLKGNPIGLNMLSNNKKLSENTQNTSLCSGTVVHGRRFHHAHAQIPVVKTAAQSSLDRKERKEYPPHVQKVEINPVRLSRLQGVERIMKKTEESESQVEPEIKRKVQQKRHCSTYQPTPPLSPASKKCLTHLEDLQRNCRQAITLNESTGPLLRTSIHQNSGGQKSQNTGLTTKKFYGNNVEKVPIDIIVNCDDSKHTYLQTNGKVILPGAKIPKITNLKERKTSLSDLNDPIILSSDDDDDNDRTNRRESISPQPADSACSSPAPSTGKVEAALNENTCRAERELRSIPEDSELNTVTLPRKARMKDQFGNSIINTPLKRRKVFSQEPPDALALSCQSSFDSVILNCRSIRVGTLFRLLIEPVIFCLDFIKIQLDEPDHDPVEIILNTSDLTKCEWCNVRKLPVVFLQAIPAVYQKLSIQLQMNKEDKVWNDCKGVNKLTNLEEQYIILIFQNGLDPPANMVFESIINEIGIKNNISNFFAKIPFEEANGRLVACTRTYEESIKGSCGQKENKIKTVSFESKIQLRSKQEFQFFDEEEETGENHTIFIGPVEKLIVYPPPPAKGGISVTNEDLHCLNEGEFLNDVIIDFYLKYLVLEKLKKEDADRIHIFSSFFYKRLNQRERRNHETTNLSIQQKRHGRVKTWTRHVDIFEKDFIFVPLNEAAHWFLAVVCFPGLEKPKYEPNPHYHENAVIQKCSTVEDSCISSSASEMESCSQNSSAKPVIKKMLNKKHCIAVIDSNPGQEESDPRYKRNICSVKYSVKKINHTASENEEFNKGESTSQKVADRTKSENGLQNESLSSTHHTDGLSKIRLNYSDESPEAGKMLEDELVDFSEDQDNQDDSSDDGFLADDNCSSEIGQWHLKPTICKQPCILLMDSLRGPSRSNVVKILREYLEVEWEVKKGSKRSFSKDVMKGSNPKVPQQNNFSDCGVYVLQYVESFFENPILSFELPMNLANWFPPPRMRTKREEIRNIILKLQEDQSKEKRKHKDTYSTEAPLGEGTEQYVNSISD

[19] = molecular target: T5, Sentrin-specific protease 7 (Homo sapiens, UniProt Q9BQF6); format: functional;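 note: Luminescence-based dose-response confirmation of ultra-high-throughput screening hits, measuring inhibition of SENP7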
T5 sequence (Q9BQF6 whole entry): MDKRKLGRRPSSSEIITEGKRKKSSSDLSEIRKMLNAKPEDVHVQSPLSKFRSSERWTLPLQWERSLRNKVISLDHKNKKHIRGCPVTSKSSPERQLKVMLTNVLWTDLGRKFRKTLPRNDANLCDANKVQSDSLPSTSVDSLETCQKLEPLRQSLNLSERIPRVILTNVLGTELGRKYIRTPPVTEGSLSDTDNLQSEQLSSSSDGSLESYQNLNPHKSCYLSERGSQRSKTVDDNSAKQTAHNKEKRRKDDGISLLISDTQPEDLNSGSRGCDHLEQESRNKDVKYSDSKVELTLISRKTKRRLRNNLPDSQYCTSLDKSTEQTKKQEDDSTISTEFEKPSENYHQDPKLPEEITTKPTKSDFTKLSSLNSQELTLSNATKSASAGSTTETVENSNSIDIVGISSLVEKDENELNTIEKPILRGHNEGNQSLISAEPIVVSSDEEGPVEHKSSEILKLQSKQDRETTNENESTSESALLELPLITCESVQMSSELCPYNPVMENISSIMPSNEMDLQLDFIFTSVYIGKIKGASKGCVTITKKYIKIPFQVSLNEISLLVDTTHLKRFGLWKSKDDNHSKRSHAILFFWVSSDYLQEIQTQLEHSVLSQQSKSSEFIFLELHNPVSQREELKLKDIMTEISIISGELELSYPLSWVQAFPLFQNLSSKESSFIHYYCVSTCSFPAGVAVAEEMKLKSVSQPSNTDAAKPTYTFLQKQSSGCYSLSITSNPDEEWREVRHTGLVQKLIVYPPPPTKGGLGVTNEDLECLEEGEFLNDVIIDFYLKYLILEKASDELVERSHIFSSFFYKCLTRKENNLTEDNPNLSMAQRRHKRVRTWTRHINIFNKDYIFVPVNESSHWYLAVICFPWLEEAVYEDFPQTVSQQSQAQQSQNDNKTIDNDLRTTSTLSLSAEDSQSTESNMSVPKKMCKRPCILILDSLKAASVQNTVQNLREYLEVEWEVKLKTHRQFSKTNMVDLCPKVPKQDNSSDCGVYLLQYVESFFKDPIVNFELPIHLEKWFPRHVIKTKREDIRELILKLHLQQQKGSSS

H4 = experiment: Luminescence Cell-Based Dose Response HTS to Identify Activators of 5'UTR Stem-Loop Driven Prion Protein mRNA Translation in H4 Neuroglioblastoma Cells. [Related pubchem assays: 1829 (Project Summary), 1814 (Primary HTS)]; format: functional; conditions: Homo sapiens

Chain of NAD-dependent protein deacylase sirtuin-5, mitochondrial (Q9NXA8 whole entry): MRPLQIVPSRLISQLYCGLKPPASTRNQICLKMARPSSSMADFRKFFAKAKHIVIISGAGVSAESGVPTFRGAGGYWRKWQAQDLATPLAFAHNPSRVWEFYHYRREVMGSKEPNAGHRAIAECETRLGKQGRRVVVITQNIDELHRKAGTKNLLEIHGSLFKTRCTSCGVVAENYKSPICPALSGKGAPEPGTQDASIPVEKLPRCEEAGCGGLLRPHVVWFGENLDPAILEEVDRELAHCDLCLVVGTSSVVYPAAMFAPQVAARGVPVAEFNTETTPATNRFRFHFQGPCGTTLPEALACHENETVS
Chain of G-protein coupled receptor 183 (P32249 whole entry, the tested form may be a part): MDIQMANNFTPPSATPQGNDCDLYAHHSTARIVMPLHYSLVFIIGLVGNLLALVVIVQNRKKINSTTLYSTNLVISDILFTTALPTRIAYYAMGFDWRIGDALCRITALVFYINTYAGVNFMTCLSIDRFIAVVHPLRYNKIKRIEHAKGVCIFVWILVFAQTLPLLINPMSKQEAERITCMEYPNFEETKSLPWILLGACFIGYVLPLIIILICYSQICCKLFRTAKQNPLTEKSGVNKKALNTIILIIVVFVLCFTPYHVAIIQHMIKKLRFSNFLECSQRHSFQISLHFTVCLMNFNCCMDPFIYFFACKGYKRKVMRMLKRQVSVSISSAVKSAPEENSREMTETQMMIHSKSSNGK

SMILES: CCOC(=O)[C@H](CCc1ccccc1)N[C@@H](C)C(=O)N1C(=O)N(C)C[C@H]1C(=O)O
- IC50 [1]: > 20 µM (inactive)
- IC50 [2]: > 20 µM (inactive)
- IC50 [3]: > 20 µM (inactive)
- IC50 [4]: > 20 µM (inactive)
- IC50 [5]: > 20 µM (inactive)
- IC50 [6]: > 20 µM (inactive)
- IC50 [7]: > 20 µM (inactive)
- IC50 [8]: > 20 µM (inactive)

SMILES: N#C/C(=C\c1ccc(N2CCOCC2)o1)C(=O)NCCc1ccccc1
- EC50 [9]: > 100 µM (active)

SMILES: COc1ccc(C(=O)/N=c2\sc3c(C)ccc(OC)c3n2C)cc1OC
- EC50 [10]: < 0.1 µM (inconclusive)
- EC50 [11]: 0.256 µM (active)
- EC50 [12]: 0.484 µM (active)
- EC50 [13]: 0.405 µM (active)

SMILES: CC(C)N(C(=O)[C@H]1C[C@H](CC(=O)NCc2cccc(C(F)(F)F)c2)C(=O)N2CCc3c([nH]c4cc(CCC(=O)N(C)C)ccc34)[C@]12C)C(C)C
- AC50 [14]: > 30 µM (inactive)

SMILES: Cc1ccc(CN2CCN(C(=O)/C=C/c3ccc(Br)cc3)CC2)cc1
- IC50 [15]: 0.00177 µM (active)

SMILES: Nc1nc(-c2ccccc2)nc2sc3c(c12)CCCC3
- EC50 [16]: > 67.5 µM (inactive)
- IC50 (Caspase-3): 19 µM (active)
- EC50 (cells): > 67.5 µM (inactive)
- IC50 [17]: 5.99 µM (active)
- IC50 [18]: 10 µM (active)
- IC50 [19]: 3.08 µM (active)

SMILES: O=C(COc1ccc2c(c1)OCO2)Nc1ccc(Cl)cn1
- AC50 [14]: > 30 µM (inactive)

SMILES: Cc1ccc(-n2c(C)cc(/C=C3\SC(=O)NC3=O)c2C)cc1
- EC50 [10]: < 0.1 µM (inconclusive)
- EC50 [11]: 0.344 µM (active)
- EC50 (H4): 0.749 µM (active)
- EC50 [12]: 0.512 µM (active)
- EC50 [13]: 0.401 µM (active)
